Assay results: patent US20050101595A1, “N-containing cycloalkyl-substituted amino-thiazole derivatives and pharmaceutical compositions for inhibiting cell proliferation and methods for their use” (PFIZER INC., priority 2003, published 2005)
Counter-ions that a name gives are not always drawn. Like-named read-outs stand apart in the source and are kept apart here.

Experiments:
CDK2/Cyclin A = CDK2/Cyclin A (Homo sapiens, UniProt P24941); experiment: Inhibition of CDK2/Cyclin A Retinoblastoma Kinase Activity; format: biochemical; conditions: for Ki: apparent Ki, CDK2/proteolyzed cyclin A, Rb fragment substrate, 25 μM ATP; for CDK2 % Inhibition At 0.03 μM: Table 2
Procedure, shortened: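 CDK2 (10 or 19 nM), insect-cell expressed, gel-filtration purified with truncated cyclin A; Rb fragment substrate; 25 μM ATP; 10 mM HEPES pH 7.4, 10 mM MgCl2; 30° C, 60 or 75 min; EDTA stop; phosphocellulose/nitrocellulose capture, phosphorimager. % inhibition vs DMSO control, no-enzyme background subtracted.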

[1] = molecular target: human CDK4 and genetically truncated (1-264) cyclin D3 (Homo sapiens, UniProt P11802); experiment: Inhibition of CDK4/Cyclin D Retinoblastoma Kinase Activity; format: biochemical; conditions: for Ki: apparent Ki, CDK4/truncated cyclin D3, Rb fragment substrate, 25 μM ATP
human CDK4 and genetically truncated (1-264) cyclin D3, sequence (P11802 whole entry, the tested form may be a part): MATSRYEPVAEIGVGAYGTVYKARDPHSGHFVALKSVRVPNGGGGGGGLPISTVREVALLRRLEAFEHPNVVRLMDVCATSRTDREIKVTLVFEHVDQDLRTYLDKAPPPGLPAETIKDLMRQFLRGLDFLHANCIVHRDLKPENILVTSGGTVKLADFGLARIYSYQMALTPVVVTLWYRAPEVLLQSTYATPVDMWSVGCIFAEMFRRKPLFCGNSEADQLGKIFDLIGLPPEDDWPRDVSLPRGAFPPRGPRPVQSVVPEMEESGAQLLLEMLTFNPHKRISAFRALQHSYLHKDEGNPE
human CDK4 and genetically truncated (1-264) cyclin D3, sequence (P30281 1-264 partner): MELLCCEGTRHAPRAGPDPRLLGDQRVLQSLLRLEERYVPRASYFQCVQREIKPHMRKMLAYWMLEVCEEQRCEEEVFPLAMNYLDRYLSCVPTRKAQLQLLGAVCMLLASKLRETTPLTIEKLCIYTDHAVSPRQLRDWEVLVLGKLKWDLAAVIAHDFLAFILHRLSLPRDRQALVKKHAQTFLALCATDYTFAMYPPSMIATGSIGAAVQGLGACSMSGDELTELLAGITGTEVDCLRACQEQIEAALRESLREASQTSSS
Procedure, shortened: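 The enzyme complex (5 nM), expressed in co-infected insect cells, was incubated with recombinant Rb fragment, 25 μM radiolabelled ATP and 2% DMSO at 30 °C. Reactions were stopped with EDTA after 20 minutes, or 60 minutes for tight-binding inhibitors. Apparent Ki values came from competitive inhibition fits.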

HCT-116 cell line = experiment: Inhibition of cell growth, tetrazolium salt (MTT) assay; format: cell-based; conditions: for IC50: Homo sapiens, HCT-116, 120 h, MTT, three to five days, read-out: HCT-116 IC50; for HCT-116 % Inhibition at 0.25 μM: 0.25 μM compound
Procedure, shortened: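 Growth inhibition is scored relative to cells receiving only 0.5% (v/v) DMSO. Plated cells rest 4 h, then take compound for three to five days at 37° C; MTT reduction to formazan is read at 540 nm.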

[2] = 0.1 μM compound, HCT-116, Table 3
[3] = 0.03 μM compound, Table 2, 0.03 µM

Cn1ccnc1SCCCS(=O)(=O)N1CCC(Nc2nc(N)c(C(=O)c3c(F)cccc3F)s2)CC1 [Example K22, 1-(4-Amino-2-{1-[3-(1-methyl-1H-imidazol-2-ylsulfanyl)-propane-1-sulfonyl]-piperidin-4-ylamino}-thiazol-5-yl)-1-(2,6-difluoro-phenyl)-methanone.]
Ki (CDK2/Cyclin A): 0.0048 µM
Ki [1]: 0.0073 µM
IC50 (HCT-116 cell line; first HCT-116 column (c4)): > 0.5 µM
IC50 (HCT-116 cell line; second HCT-116 column (c5)): > 0.5 µM

Cc1cc(C)c2c(c1C(=O)N1CCC(Nc3nc(N)c(C(=O)c4c(F)cccc4F)s3)CC1)CC(C)(C)C2=O [Example R29]
CDK2 % Inhibition at 0.03 μM (CDK2/Cyclin A; at 0.03 μM): 2%
CDK4 % Inhibition at 0.03 μM ([1]; at 0.03 μM): 23%
HCT-116 % Inhibition at 0.1 μM (HCT-116 cell line; HCT-116 cells, at 0.1 μM): 0%
HCT-116 5 Inhibition at 0.25 μM (HCT-116 cell line; HCT-116 cells): 36

Nc1nc(NC2CCN(C(=O)NC(=O)c3ccccc3)CC2)sc1C(=O)c1c(F)cccc1F [Example O26]
CDK2 % Inhibition At 0.03 μM (CDK2/Cyclin A; 0.03 μM compound): 33%
CDK4 % Inhibition at 0.03 μM ([1]; 0.03 μM compound, Table 2): 10%
HCT-116 % Inhibition at 0.25 μM (HCT-116 cell line; HCT-116, Table 2): 12%

CN(C)CC(=O)N1CCC(Nc2nc(N)c(C(=O)c3c(F)cccc3F)s2)CC1 [Example D2, (4-[4-Amino-5-(2,6-difluoro-benzoyl)-thiazol-2-ylamino}-piperidin-1-yl)-2-dimethylamino-ethanone]
Ki (CDK2/Cyclin A): 1.3 µM
Ki [1]: 0.12 µM
IC50 (HCT-116 cell line; first HCT-116 column (c4)): 1.9 µM
IC50 (HCT-116 cell line; second HCT-116 column (c5)): 5 µM

Nc1nc(NC2CCN(C(=O)c3c(F)cccc3Cl)CC2)sc1C(=O)c1c(F)cccc1F [Example R109]
CDK2 % Inhibition at 0.03 μM (CDK2/Cyclin A; at 0.03 μM): 21%
CDK4 % Inhibition at 0.03 μM ([1]; at 0.03 μM): 34%
HCT-116 % Inhibition at 0.1 μM (HCT-116 cell line; HCT-116 cells, at 0.1 μM): 14%
HCT-116 5 Inhibition at 0.25 μM (HCT-116 cell line; HCT-116 cells): 47

COc1ccc(OC)c(NC(=O)N2CCC(Nc3nc(N)c(C(=O)c4c(F)cccc4F)s3)CC2)c1 [Example O9]
CDK2 % Inhibition At 0.03 μM (CDK2/Cyclin A; 0.03 μM compound): 35%
CDK4 % Inhibition at 0.03 μM ([1]; 0.03 μM compound, Table 2): 2%
HCT-116 % Inhibition at 0.25 μM (HCT-116 cell line; HCT-116, Table 2): 13%

Nc1nc(NC2CCN(C(=O)Nc3ccccc3F)CC2)sc1C(=O)c1c(F)cccc1F [Example O5]
CDK2 % Inhibition At 0.03 μM (CDK2/Cyclin A; 0.03 μM compound): 35%
CDK4 % Inhibition at 0.03 μM ([1]; 0.03 μM compound, Table 2): 3%
HCT-116 % Inhibition at 0.25 μM (HCT-116 cell line; HCT-116, Table 2): 31%

Nc1nc(NC2CCN(C(=O)c3ccno3)CC2)sc1C(=O)c1c(F)cccc1F [Example C10, 1-{4-Amino-2-[1-(1-isoxazol-5-yl-methanoyl)-piperidin-4-ylamino]-thiazol-5-yl}1-(2,6-difluoro-phenyl)-methanone]
Ki (CDK2/Cyclin A): 0.039 µM
Ki [1]: 0.022 µM
IC50 (HCT-116 cell line; first HCT-116 column (c4)): 0.75 µM
IC50 (HCT-116 cell line; second HCT-116 column (c5)): 2.1 µM

CC(C)NC(=O)N1CCC(Nc2nc(N)c(C(=O)c3c(F)cccc3F)s2)CC1 [Example O29]
CDK2 % Inhibition At 0.03 μM (CDK2/Cyclin A; 0.03 μM compound): 30%
CDK4 % Inhibition at 0.03 μM ([1]; 0.03 μM compound, Table 2): 10%
HCT-116 % Inhibition at 0.25 μM (HCT-116 cell line; HCT-116, Table 2): 33%

Nc1nc(NC2CCN(S(=O)(=O)c3cnc(OCCN4CCCCC4)nc3)CC2)sc1C(=O)c1c(F)cccc1F [Example H23, (4-Amino-2-{1-[2-(2-piperidin-1-yl-ethoxy)-pyrimidine-5-sulfonyl]-piperidin-4-ylamino}-thiazol-5-yl)-(2,6-difluoro-phenyl)-methanone Trifluoroacetic Acid Salt]
Ki (CDK2/Cyclin A): 0.0015 µM
Ki [1]: 0.00052 µM
IC50 (HCT-116 cell line; first HCT-116 column (c4)): 0.093 µM
IC50 (HCT-116 cell line; second HCT-116 column (c5)): 1.5 µM

CN(C)CCCOc1ccc(S(=O)(=O)N2CCC(Nc3nc(N)c(C(=O)c4c(F)cccc4F)s3)CC2)cn1 [Example H15, 1-(4-Amino-2-{1-[6-(3-dimethylamino-propoxy)-pyridine-3-sulfonyl]-piperidin-4-ylamino}-thiazol-5-yl)-1-(2,6-difluoro-phenyl)-methanone Hydrochloride]
Ki (CDK2/Cyclin A): 0.00064 µM
Ki [1]: 0.00034 µM
IC50 (HCT-116 cell line; first HCT-116 column (c4)): 0.071 µM
IC50 (HCT-116 cell line; second HCT-116 column (c5)): 0.5 µM

Cn1ccnc1-c1ccc(S(=O)(=O)N2CCC(Nc3nc(N)c(C(=O)c4c(F)cccc4F)s3)CC2)cn1 [Example I3, 1-(4-Amino-2-{1-[6-(1-methyl-1H-imidazol-2-yl)-pyridine-3-sulfonyl]-piperidin-4-ylamino}-thiazol-5-yl)-1-(2,6-difluoro-phenyl)-methanone Trifluoroacetic Acid Salt]
Ki (CDK2/Cyclin A): 0.0017 µM
Ki [1]: 0.002 µM
IC50 (HCT-116 cell line; first HCT-116 column (c4)): 0.16 µM
IC50 (HCT-116 cell line; second HCT-116 column (c5)): 0.5 µM

CC(C)c1cc(C(C)C)c(S(=O)(=O)N2CCC(Nc3nc(N)c(C(=O)c4c(F)cccc4F)s3)CC2)c(C(C)C)c1 [Example P9]
CDK2 % Inhibition at 0.03 μM (CDK2/Cyclin A; 0.03 μM compound, Table 3): −17%
CDK4 % Inhibition at 0.03 μM ([1]; 0.03 μM compound, Table 3): 46%
HCT-116 % Inhibition at 0.1 μM (HCT-116 cell line; [2]): 13%
HCT-116 % Inhibition at 0.25 μM (HCT-116 cell line; HCT-116, Table 3): 35%

CC(NC(=O)N1CCC(Nc2nc(N)c(C(=O)c3c(F)cccc3F)s2)CC1)c1ccccc1 (centres unmarked) [Example O66]
CDK2 % Inhibition At 0.03 μM (CDK2/Cyclin A; 0.03 μM compound, 0.03 µM): 32%
CDK4 % Inhibition at 0.03 μM [1, 3]: −1%
HCT-116 % Inhibition at 0.25 μM (HCT-116 cell line; HCT-116, Table 2, 0.25 µM): 36%

Nc1nc(NC2CCN(S(=O)(=O)CCCN3CCCC3)CC2)sc1C(=O)c1c(F)cccc1F [Example K8, 1-(4-Amino-2-{1-[3-(pyrrolidin-1-yl)propane-1 sulfonyl]-piperidin-4-ylamino}-thiazol-5-yl)-1-(2,6-difluoro-phenyl)-methanone.]
Ki (CDK2/Cyclin A): 0.0018 µM
Ki [1]: 0.0027 µM
IC50 (HCT-116 cell line; first HCT-116 column (c4)): 0.31 µM
IC50 (HCT-116 cell line; second HCT-116 column (c5)): 2.9 µM

Nc1nc(NC2CCN(S(=O)(=O)c3ccc(-c4ccncc4)nc3)CC2)sc1C(=O)c1c(F)cccc1F [Example I7, 1-{4-Amino-2-[1-([2,4′]bipyridinyl-5-sulfonyl)-piperidinin-4-ylamino]-thiazol-5-yl}-1-(2,6-difluoro-phenyl)-methanone]
Ki (CDK2/Cyclin A): < 0.001 µM
Ki [1]: 0.00038 µM
IC50 (HCT-116 cell line; first HCT-116 column (c4)): 1.3 µM
IC50 (HCT-116 cell line; second HCT-116 column (c5)): 5 µM

Nc1nc(NC2CCN(C(=O)c3ccc(F)cc3)CC2)sc1C(=O)c1c(F)cccc1F [Example R143]
CDK2 % Inhibition at 0.03 μM (CDK2/Cyclin A; at 0.03 μM): 30%
CDK4 % Inhibition at 0.03 μM ([1]; at 0.03 μM): 59%
HCT-116 % Inhibition at 0.1 μM (HCT-116 cell line; HCT-116 cells, at 0.1 μM): 0%
HCT-116 5 Inhibition at 0.25 μM (HCT-116 cell line; HCT-116 cells): 40

CC(=O)N(C)C1CCN(CCCS(=O)(=O)N2CCC(Nc3nc(N)c(C(=O)c4c(F)cccc4F)s3)CC2)C1 (centres unmarked) [Example K20, N-{1-[3-(4-{4-Amino-5-[1-(2,6-difluoro-phenyl)-methanoyl]-thiazol-2-ylamino}-piperidine-1-sulfonyl)-propyl]-pyrrolidin-3-yl}-N-methyl-acetamide]
Ki (CDK2/Cyclin A): 0.0048 µM
Ki [1]: 0.0015 µM
IC50 (HCT-116 cell line; first HCT-116 column (c4)): 2 µM
IC50 (HCT-116 cell line; second HCT-116 column (c5)): 5 µM

Nc1nc(NC2CCN(S(=O)(=O)c3ccc(CCCN4CCCCC4)nc3)CC2)sc1C(=O)c1c(F)cccc1F [Example I14, 1-(4-Amino-2-{1-[6-(3-piperidin-1-yl-propyl)-pyridine-3-sulfonyl]-piperidin-4-ylamino}-thiazol-5-yl)-1-(2,6-difluoro-phenyl)-methanone Trifluoroacetic Acid Salt]
Ki (CDK2/Cyclin A): 0.0012 µM
Ki [1]: 0.00057 µM
IC50 (HCT-116 cell line; first HCT-116 column (c4)): 0.14 µM
IC50 (HCT-116 cell line; second HCT-116 column (c5)): 0.3 µM

Nc1nc(NC2CCN(C(=O)c3cc([N+](=O)[O-])cc([N+](=O)[O-])c3)CC2)sc1C(=O)c1c(F)cccc1F [Example Q70]
CDK2 % Inhibition at 0.03 μM (CDK2/Cyclin A; 0.03 μM compound, Table 4): 19%
CDK4 % Inhibition at 0.03 μM ([1]; 0.03 μM compound, Table 4): 38%
HCT-116 % Inhibition at 0.1 μM (HCT-116 cell line; 0.1 μM compound, HCT-116, Table 4): 5%
HCT-116 % Inhibition at 0.25 μM (HCT-116 cell line; HCT-116, Table 4): 26%

COC(=O)c1sccc1S(=O)(=O)N1CCC(Nc2nc(N)c(C(=O)c3c(F)cccc3F)s2)CC1 [Example P63]
CDK2 % Inhibition at 0.03 μM (CDK2/Cyclin A; 0.03 μM compound, Table 3): 71%
CDK4 % Inhibition at 0.03 μM ([1]; 0.03 μM compound, Table 3): 66%
HCT-116 % Inhibition at 0.1 μM (HCT-116 cell line; [2]): 23%
HCT-116 % Inhibition at 0.25 μM (HCT-116 cell line; HCT-116, Table 3): 40%

CNc1ccc(C(=O)N2CCC(Nc3nc(N)c(C(=O)c4c(F)cccc4F)s3)CC2)cc1 [Example R147]
CDK2 % Inhibition at 0.03 μM (CDK2/Cyclin A; at 0.03 μM): 63%
CDK4 % Inhibition at 0.03 μM ([1]; at 0.03 μM): 78%
HCT-116 % Inhibition at 0.1 μM (HCT-116 cell line; HCT-116 cells, at 0.1 μM): 0%
HCT-116 5 Inhibition at 0.25 μM (HCT-116 cell line; HCT-116 cells): 41

COc1ccc(NC(=O)N2CCC(Nc3nc(N)c(C(=O)c4c(F)cccc4F)s3)CC2)cc1 [Example O21]
CDK2 % Inhibition At 0.03 μM (CDK2/Cyclin A; 0.03 μM compound, 0.03 µM): 37%
CDK4 % Inhibition at 0.03 μM [1, 3]: 13%
HCT-116 % Inhibition at 0.25 μM (HCT-116 cell line; HCT-116, Table 2, 0.25 µM): 21%
